Data from patent US8389541B2, “Inhibitors of protein tyrosine kinase activity” (MethylGene Inc., priority 2007, dated 2013).

Molecular target: T1, VEGF receptor KDR (Homo sapiens, UniProt P35968)
T1 construct: made in house; host or cells: Sf9 cells (Spodoptera frugiperda), baculovirus
Test: In vitro receptor tyrosine kinase assay (DELFIA), VEGF receptor KDR
Type: biochemical
Details: GST-VEGFR2 806-1356, 0.6 uM ATP; read-out: VEGFR IC50
Excerpt: In the case of VEGF receptor KDR a 1.6-kb cDNA corresponding to the catalytic domain of VEGFR2 or KDR (Genbank accession number AF035121 amino acid 806 to 1356) is cloned into the Pst I site of the pDEST20 Gateway vector (Invitrogen) for the production of a GST-tagged version of that enzyme.
The GST-VEGFR2806-1356 protein is expressed in Sf9 cells (Spodoptera frugiperda) upon infection with recombinant baculovirus construct.
The supernatant is loaded onto a GST-agarose column (Sigma) equilibrated with PBS pH 7.3. Following a four column volume (CV) wash with PBS pH 7.3+1% Triton X-100 and 4 CV wash with buffer B (50 mM Tris pH 8.0, 20% glycerol and 100 mM NaCl), bound proteins are step eluted with 5 CV of buffer B supplemented with 5 mM DTT and 15 mM glutathion. […] Final GST-VEGFR2806-1356 protein preparations concentrations are about 0.7 mg/ml with purity approximating 70%.

T1 sequence (P35968 806-1356): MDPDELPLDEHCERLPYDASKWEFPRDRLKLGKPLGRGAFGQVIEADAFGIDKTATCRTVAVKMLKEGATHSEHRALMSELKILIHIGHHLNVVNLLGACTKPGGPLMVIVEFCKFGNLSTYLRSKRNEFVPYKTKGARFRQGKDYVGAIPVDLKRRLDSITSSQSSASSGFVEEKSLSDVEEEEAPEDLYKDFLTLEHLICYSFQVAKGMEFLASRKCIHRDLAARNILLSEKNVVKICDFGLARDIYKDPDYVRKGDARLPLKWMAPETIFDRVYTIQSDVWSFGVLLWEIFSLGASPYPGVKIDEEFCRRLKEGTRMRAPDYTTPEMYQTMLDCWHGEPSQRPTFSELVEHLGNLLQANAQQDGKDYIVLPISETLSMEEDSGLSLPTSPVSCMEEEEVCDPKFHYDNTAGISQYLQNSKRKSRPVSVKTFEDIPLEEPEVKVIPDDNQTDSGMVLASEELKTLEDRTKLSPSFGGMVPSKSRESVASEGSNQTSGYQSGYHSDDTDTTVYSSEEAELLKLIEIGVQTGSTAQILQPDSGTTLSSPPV

SMILES	IC50 [nM]
COCCNCCn1cc(-c2cc3nccc(Oc4ccc(NC(=S)NC(=O)Cc5ccccc5)cc4F)c3s2)cn1 [drawing 321]	< 250
COCCNCc1ccc(-c2cc3nccc(Oc4ccc(NC(=O)C5(C(=O)Nc6ccccc6)CC5)cc4F)c3s2)o1 [drawing 326]	< 250
COCCNCCn1cc(-c2cc3nccc(Oc4ccc(NC(=O)CC(=O)N(C)c5ccccc5)cc4F)c3s2)cn1 [drawing 334]	< 250
CS(=O)(=O)CCNCc1ccc(-c2cc3nccc(Oc4ccc(NC(=O)C5(C(=O)Nc6ccccc6)CC5)cc4F)c3s2)cc1 [drawing 340]	< 250

Results, then the compound that gave them:

IC50 [nM]	SMILES
< 250	COCCNCc1cnc(-c2cc3nccc(Oc4ccc(NC(=S)NC(=O)Cc5ccccc5)cc4F)c3s2)n1C [drawing 342]
< 250	COCCNCc1cnc(-c2cc3nccc(Oc4ccc(NC(=O)CC(=O)Nc5ccccc5)cc4F)c3s2)n1C [drawing 345]

Tested on: A549 cells
Test: Wound healing assay in A549 cells (HGF-stimulated)
Type: cell-based
Details: Homo sapiens, last dose that inhibited gap closing by more than 25%, 24 h, read-out: A549 WOUND_HEALING IC50
Procedure: Wound healing assay in A549 cells. A549 cells (ATCC) are seeded in DMEM low glucose medium complemented with 10% FBS into 24-well plates at a density of 7.5×10^4 cells/well and grown to confluence (48 h). Inhibitors were added to the medium at a range of doses (0.00032-10 uM) for 3 h at which point a gap is introduced by scraping cells with a P1000 pipette tip. Cells are then stimulated to migrate by the addition of HGF (in the form of conditioned medium from 293T cells over-expressing the human HGF gene) and the culture is continued for 24 h. […] For the purpose of standardization, a control is carried on every assay plates.

SMILES	IC50 [nM]
COCCNCCn1cc(-c2cc3nccc(Oc4ccc(NC(=S)NC(=O)Cc5ccccc5)cc4F)c3s2)cn1 [drawing 321]	250 to 500
COCCNCc1ccc(-c2cc3nccc(Oc4ccc(NC(=O)C5(C(=O)Nc6ccccc6)CC5)cc4F)c3s2)o1 [drawing 326]	250 to 500
COCCNCCn1cc(-c2cc3nccc(Oc4ccc(NC(=O)CC(=O)N(C)c5ccccc5)cc4F)c3s2)cn1 [drawing 334]	< 250
CS(=O)(=O)CCNCc1ccc(-c2cc3nccc(Oc4ccc(NC(=O)C5(C(=O)Nc6ccccc6)CC5)cc4F)c3s2)cc1 [drawing 340]	< 250

The remaining lines, values ahead:

IC50 [nM]	SMILES
< 250	COCCNCc1cnc(-c2cc3nccc(Oc4ccc(NC(=S)NC(=O)Cc5ccccc5)cc4F)c3s2)n1C [drawing 342]
250 to 500	COCCNCc1cnc(-c2cc3nccc(Oc4ccc(NC(=O)CC(=O)Nc5ccccc5)cc4F)c3s2)n1C [drawing 345]

Tested on: DU145 cells
Test: Scatter assay in DU145 cells (HGF-stimulated)
Type: cell-based
Details: Homo sapiens, DU-145, last dose that created an inhibitory effect on scattering, 24 h, read-out: DU145 SCATT. INHIB IC50
Procedure: Scatter assays in DU145. The scatter assay is performed as described previously (Miura H, Nishimura K, Tsujimura A, Matsumiya K, Matsumoto K, Nakamura T, et al. Effects of hepatocyte growth factor on E-cadherin-mediated cell-cell adhesion in DU145 prostate cancer cells. Urology 2001; 58(6):1064-9) for DU145 prostate carcinoma cells with the indicated modifications. In brief, DU145 cells (ATCC) are seeded in 24-well plates at a density of 7×10^3 cells/well in MEM medium complemented with 10% FBS and cultured for 48 h, to allow the formation of small compact colonies of cells. Inhibitors are subsequently added at a range of doses (0.00032-10 uM) for 3 h. Cells are then stimulated to migrate by the addition of HGF (in the form of conditioned medium from 293T cells over-expressing the human HGF gene) and the culture is continued for another 24 h. The IC50 values is defined as the last dose that created an inhibitory effect on scattering. For the purpose of standardization a control is carried on every test plates for the DU145 scattering assays.

SMILES	IC50 [nM]
COCCNCCn1cc(-c2cc3nccc(Oc4ccc(NC(=S)NC(=O)Cc5ccccc5)cc4F)c3s2)cn1 [drawing 321]	250 to 500
COCCNCc1ccc(-c2cc3nccc(Oc4ccc(NC(=O)C5(C(=O)Nc6ccccc6)CC5)cc4F)c3s2)o1 [drawing 326]	250 to 500
COCCNCCn1cc(-c2cc3nccc(Oc4ccc(NC(=O)CC(=O)N(C)c5ccccc5)cc4F)c3s2)cn1 [drawing 334]	250 to 500
CS(=O)(=O)CCNCc1ccc(-c2cc3nccc(Oc4ccc(NC(=O)C5(C(=O)Nc6ccccc6)CC5)cc4F)c3s2)cc1 [drawing 340]	< 250

The remaining lines, values ahead:

IC50 [nM]	SMILES
< 250	COCCNCc1cnc(-c2cc3nccc(Oc4ccc(NC(=S)NC(=O)Cc5ccccc5)cc4F)c3s2)n1C [drawing 342]
250 to 500	COCCNCc1cnc(-c2cc3nccc(Oc4ccc(NC(=O)CC(=O)Nc5ccccc5)cc4F)c3s2)n1C [drawing 345]

Molecular target: T2, c-Met (Homo sapiens, UniProt P08581)
T2 construct: endogenous in cells; host or cells: MKN45 gastric carcinoma cells
T2 sequence (P08581 25-1390): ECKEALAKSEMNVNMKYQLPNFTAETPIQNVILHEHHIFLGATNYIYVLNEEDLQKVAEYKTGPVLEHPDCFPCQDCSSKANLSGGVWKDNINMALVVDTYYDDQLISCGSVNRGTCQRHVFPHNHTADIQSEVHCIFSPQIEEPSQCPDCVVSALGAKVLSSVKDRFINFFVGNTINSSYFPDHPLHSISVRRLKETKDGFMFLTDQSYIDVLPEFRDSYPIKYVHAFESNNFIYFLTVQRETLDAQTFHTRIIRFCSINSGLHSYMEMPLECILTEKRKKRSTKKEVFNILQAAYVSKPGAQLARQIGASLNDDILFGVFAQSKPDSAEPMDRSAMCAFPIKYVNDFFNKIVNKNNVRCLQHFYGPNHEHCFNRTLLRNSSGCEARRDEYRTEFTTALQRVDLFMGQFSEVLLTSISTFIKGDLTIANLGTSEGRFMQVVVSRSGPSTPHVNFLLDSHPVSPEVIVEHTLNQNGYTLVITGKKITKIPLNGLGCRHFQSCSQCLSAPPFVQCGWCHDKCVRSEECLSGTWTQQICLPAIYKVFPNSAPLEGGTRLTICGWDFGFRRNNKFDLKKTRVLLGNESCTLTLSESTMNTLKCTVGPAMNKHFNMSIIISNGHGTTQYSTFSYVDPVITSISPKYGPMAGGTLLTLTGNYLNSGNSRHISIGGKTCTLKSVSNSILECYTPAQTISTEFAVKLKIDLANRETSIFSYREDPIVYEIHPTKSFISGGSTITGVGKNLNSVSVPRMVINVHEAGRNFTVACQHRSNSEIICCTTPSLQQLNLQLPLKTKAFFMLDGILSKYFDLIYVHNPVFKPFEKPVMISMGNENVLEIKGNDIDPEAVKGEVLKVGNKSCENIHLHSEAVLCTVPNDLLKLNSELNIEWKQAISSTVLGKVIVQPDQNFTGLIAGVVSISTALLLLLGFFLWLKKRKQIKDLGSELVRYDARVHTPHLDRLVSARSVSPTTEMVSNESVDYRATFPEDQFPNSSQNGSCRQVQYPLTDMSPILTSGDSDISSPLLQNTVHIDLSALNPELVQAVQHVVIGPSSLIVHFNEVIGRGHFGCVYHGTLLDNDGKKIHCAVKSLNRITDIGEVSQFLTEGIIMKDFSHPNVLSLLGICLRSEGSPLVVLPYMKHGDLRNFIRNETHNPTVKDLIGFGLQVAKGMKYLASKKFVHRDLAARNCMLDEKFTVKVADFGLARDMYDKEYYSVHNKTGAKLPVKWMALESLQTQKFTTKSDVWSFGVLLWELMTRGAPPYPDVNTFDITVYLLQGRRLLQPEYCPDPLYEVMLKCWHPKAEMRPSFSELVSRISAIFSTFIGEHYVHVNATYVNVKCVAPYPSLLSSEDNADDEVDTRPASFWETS
Test: Inhibition of c-Met phosphorylation in MKN45 cells (direct ELISA)
Type: cell-based
Details: 3 h treatment, read-out: CMET ELISA IN MKN45 IC50
Excerpt: The following assay is used to determine inhibition of c-Met phosphorylation.
The c-Met receptor is expressed in numerous cancer cell lines derived from tumors of epithelial origin. In MKN45 gastric carcinoma cells the c-Met gene is amplified, resulting in several-fold overexpression of the receptor and its constitutive activation. For this reason constitutively high levels of ERK1/2 are also detected in these cells, independently of HGF-added stimulation (Smolen G A, Sordella R, Muir B, Mohapatra G, Barmettler A, Archibald H, et al. Amplification of MET may identify a subset of cancers with extreme sensitivity to the selective tyrosine kinase inhibitor PHA-665752. Proc Natl Acad Sci USA 2006). We have developed a sensitive method to follow c-Met phosphorylation in these cells. In previous studies with earlier generation c-Met inhibitors, we established that the IC50s for the inhibition of c-Met phosphorylation were identical using this novel ELISA approach and standard western blot procedure, with antibodies directed against the activating autocatalysis tyrosine residues of c-MET (Tyr Y1230-34-35).
Cell treatments: MKN45 cells are seeded into wells of 96-well plates at a density of 3×10^4 cells/well in RPMI medium supplemented with 10% FBS. HA-TPR-RON expressing 293T (clone 18) cells are seeded into wells of 96-well plates at a density of 3×10^4 cells/well in DMEM medium supplemented with 10% FBS. Cells are grown for 48 h prior to treatments with compounds of interest. Inhibitors are added to the medium in triplicate wells at the indicated doses. After 3 h of treatment, media is aspirated and cells are lysed by one freeze-thaw cycle in 50 μL/well hypotonic lysis buffer (25 mM HEPES pH 7.5, 10 mM NaCl with 1 mM 4-(2-aminoethyl)benzenesulfonyl fluoride hydrochloride, 200 μM sodium orthovanadate, 1 mM sodium fluoride, 10 μg/mL of leupeptin, 10 μg/mL of aprotinin/mL, 1 μg/mL of pepstatin and 50 μg/mL Na-p-tosyl-L-lysine chloromethyl ketone hydrochloride.
Detection of phosphorylated c-Met by direct ELISA: Lysate samples (5 μL) from wells of treatment plates are transferred to 80 μL of binding buffer (25 mM HEPES pH 7.5, 200 mM NaCl) in wells of high binding white polysterene 96-well plates (Corning). After an overnight protein binding incubation at 4° C., lysates are aspirated and wells are blocked for 1 h at 37° C. in TBST supplemented with 5% BSA. Plates are incubated with the primary antibodies anti-phospho-Tyrosine (Millipore, 4G10) diluted 1/15000 in TBST supplemented with 5% BSA for 1 h at room temperature. Plates are washed 3 times on a plate washer (SkanWasher, Molecular Devises), and incubated with the reporter antibody […] (Sigma) diluted 1/15000 in TBST supplemented with 5% BSA, for 1 h at room temperature. Plates are washed 3 times with TBST using on a plate washer and subsequently incubated with chemiluminescent substrate solution (ECL, Roche). Luminescence signal is captured on a Polar Star Optima apparatus (BMG LabTech).
Average values of the triplicate samples are used to prepare IC50 curves using a 4-parameter fit model. These curves are calculated using, for example, GraFit 5.0 software. For assay standardization purpose, an internal control is included on each experimental test plate.

SMILES	IC50 [nM]
COCCNCCn1cc(-c2cc3nccc(Oc4ccc(NC(=S)NC(=O)Cc5ccccc5)cc4F)c3s2)cn1 [drawing 321]	< 250
COCCNCc1ccc(-c2cc3nccc(Oc4ccc(NC(=O)C5(C(=O)Nc6ccccc6)CC5)cc4F)c3s2)o1 [drawing 326]	< 250
COCCNCCn1cc(-c2cc3nccc(Oc4ccc(NC(=O)CC(=O)N(C)c5ccccc5)cc4F)c3s2)cn1 [drawing 334]	< 250
CS(=O)(=O)CCNCc1ccc(-c2cc3nccc(Oc4ccc(NC(=O)C5(C(=O)Nc6ccccc6)CC5)cc4F)c3s2)cc1 [drawing 340]	< 250

Results, then the compound that gave them:

IC50 [nM]	SMILES
< 250	COCCNCc1cnc(-c2cc3nccc(Oc4ccc(NC(=S)NC(=O)Cc5ccccc5)cc4F)c3s2)n1C [drawing 342]
< 250	COCCNCc1cnc(-c2cc3nccc(Oc4ccc(NC(=O)CC(=O)Nc5ccccc5)cc4F)c3s2)n1C [drawing 345]

Molecular target: recombinant human c-Met/HGF receptor (Homo sapiens, UniProt P08581)
Sequence (P08581 1078-1337): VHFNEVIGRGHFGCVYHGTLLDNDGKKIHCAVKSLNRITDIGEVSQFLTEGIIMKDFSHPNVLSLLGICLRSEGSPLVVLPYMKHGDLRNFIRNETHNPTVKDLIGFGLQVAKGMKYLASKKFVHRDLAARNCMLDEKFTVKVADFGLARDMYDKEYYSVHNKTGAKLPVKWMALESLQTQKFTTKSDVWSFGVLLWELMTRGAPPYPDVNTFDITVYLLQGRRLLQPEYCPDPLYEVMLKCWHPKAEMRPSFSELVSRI
Test: In vitro receptor tyrosine kinase assay (DELFIA), c-Met/HGF receptor
Details: not given

SMILES	IC50 [nM]
COCCNCCn1cc(-c2cc3nccc(Oc4ccc(NC(=S)NC(=O)Cc5ccccc5)cc4F)c3s2)cn1 [drawing 321]	< 250
COCCNCc1ccc(-c2cc3nccc(Oc4ccc(NC(=O)C5(C(=O)Nc6ccccc6)CC5)cc4F)c3s2)o1 [drawing 326]	< 250
COCCNCCn1cc(-c2cc3nccc(Oc4ccc(NC(=O)CC(=O)N(C)c5ccccc5)cc4F)c3s2)cn1 [drawing 334]	< 250
CS(=O)(=O)CCNCc1ccc(-c2cc3nccc(Oc4ccc(NC(=O)C5(C(=O)Nc6ccccc6)CC5)cc4F)c3s2)cc1 [drawing 340]	< 250

The next lines start with the values.

IC50 [nM]	SMILES
< 250	COCCNCc1cnc(-c2cc3nccc(Oc4ccc(NC(=S)NC(=O)Cc5ccccc5)cc4F)c3s2)n1C [drawing 342]
< 250	COCCNCc1cnc(-c2cc3nccc(Oc4ccc(NC(=O)CC(=O)Nc5ccccc5)cc4F)c3s2)n1C [drawing 345]
